Source: patent US11142525B2 (Pfizer Inc., priority 2018, dated 2021)
Where two headings read alike, the source gives them in different places.

Tests used:
[1] = target: human full-length recombinant HPK1 (Homo sapiens (Human), UniProt Q92918); assay: HPK1 biochemical enzyme assay, microfluidic mobility shift assay (MSA); conditions: read-out: HPK1 Enzyme Assay_Ki
[2] = tested on: phospho-SLP-76 (Ser376) in Jurkat cells; assay: Phospho-SLP-76 (Ser376) Homogeneous Time Resolved Fluorescence (HTRF) assay in Jurkat cells; type: cell-based; conditions: Homo sapiens, read-out: SLP76 Assay_IC50
Procedure, shortened: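 Jurkat cells pre-treated 30 min with compounds (10 μM to 0.1 nM, 11-point, 0.1% DMSO), then stimulated with 200 μg/mL F(ab)2-complexed anti-CD3 (UCHT1) for 15 min at 37 °C. Lysate phospho-SLP-76 detected by HTRF after overnight antibody incubation; IC50 from four-parameter fit.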

[3] = mobility shift assay, 75 μM ATP, Morrison equation, tight-binding competitive inhibition
[4] = 30 min pre-treatment, anti-CD3 stimulation 15 min, HTRF
[5] = Phospho-SLP-76 (Ser376) HTRF, anti-CD3 stimulation

Sequence of human full-length recombinant HPK1 (Q92918 whole entry): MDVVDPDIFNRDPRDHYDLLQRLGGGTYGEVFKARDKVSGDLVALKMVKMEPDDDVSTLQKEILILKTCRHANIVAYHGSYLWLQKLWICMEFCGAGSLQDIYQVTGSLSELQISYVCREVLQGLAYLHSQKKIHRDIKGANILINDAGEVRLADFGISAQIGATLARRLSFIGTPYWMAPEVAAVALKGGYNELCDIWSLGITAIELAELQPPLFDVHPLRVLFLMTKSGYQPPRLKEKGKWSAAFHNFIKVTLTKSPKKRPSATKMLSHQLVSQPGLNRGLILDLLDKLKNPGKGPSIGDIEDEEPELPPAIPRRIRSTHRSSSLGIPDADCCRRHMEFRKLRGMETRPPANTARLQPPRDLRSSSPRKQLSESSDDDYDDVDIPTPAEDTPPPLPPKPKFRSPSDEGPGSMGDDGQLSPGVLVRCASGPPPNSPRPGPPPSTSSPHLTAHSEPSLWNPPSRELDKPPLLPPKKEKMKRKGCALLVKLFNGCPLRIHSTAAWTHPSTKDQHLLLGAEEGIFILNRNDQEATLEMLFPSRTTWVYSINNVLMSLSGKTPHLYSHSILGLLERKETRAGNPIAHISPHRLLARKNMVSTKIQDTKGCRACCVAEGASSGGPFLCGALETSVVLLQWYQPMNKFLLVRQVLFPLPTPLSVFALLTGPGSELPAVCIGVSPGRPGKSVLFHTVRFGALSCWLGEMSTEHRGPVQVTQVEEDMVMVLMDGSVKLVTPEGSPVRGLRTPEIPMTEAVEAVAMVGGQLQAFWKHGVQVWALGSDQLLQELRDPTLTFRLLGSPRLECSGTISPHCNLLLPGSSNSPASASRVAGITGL

| Compound | Ki [1, 3] [nM] | IC50 [2, 4] [nM] | Ki ([1]; HPK1 mobility shift assay) [nM] | IC50 [2, 5] [nM] |
| --- | --- | --- | --- | --- |
| C[C@H]1COC(=O)N1c1cccc(N2Cc3c(cc(N4CCC4)nc3CN)C2=O)n1 [Example 44, 4-(aminomethyl)-6-(azetidin-1-yl)-2-{6-[(4S)-4-methyl-2-oxo-1,3-oxazolidin-3-yl]pyridin-2-yl}-2,3-dihydro-1H-pyrrolo[3,4-c]pyridin-1-one] | 0.4 | 244 | – | – |
| CCC(CC)n1cnnc1-c1cccc(N2Cc3c(cc(N(CC)C(C)C)nc3CN)C2=O)n1 [Example 166] | – | – | 0.5 | 104 |
| CCC(CC)n1cnnc1-c1cccc(N2Cc3c(cc(N4CCC[C@@H]4C)nc3CNC)C2=O)n1 [Example 138, 4-[(methylamino)methyl]-6-[(2S)-2-methylpyrrolidin-1-yl]-2-{6-[4-(pentan-3-yl)-4H-1,2,4-triazol-3-yl]pyridin-2-yl}-2,3-dihydro-1H-pyrrolo[3,4-c]pyridin-1-one] | – | – | 0.09 | > 10000 |
| CNCc1nc(N(C)C(C)C)cc2c1CN(c1cccc(-c3nncn3C(C)C)n1)C2=O [Example 6, 4-[(methylamino)methyl]-6-[methyl(propan-2-yl)amino]-2-{6-[4-(propan-2-yl)-4H-1,2,4-triazol-3-yl]pyridin-2-yl}-2,3-dihydro-1H-pyrrolo[3,4-c]pyridin-1-one] | 0.13 | 39 | – | – |
| CCN(C)c1cc2c(c(CNC)n1)CN(c1cccc(-c3nncn3C(C)C)n1)C2=O [Example 48, 6-[ethyl(methyl)amino]-4-[(methylamino)methyl]-2-{6-[4-(propan-2-yl)-4H-1,2,4-triazol-3-yl]pyridin-2-yl}-2,3-dihydro-1H-pyrrolo[3,4-c]pyridin-1-one] | 0.14 | 94 | – | – |
| CCC(CC)n1cnnc1-c1cccc(N2Cc3c(cc(N(CC)CC)nc3CN)C2=O)n1 [Example 122, 4-(aminomethyl)-6-(diethylamino)-2-{6-[4-(pentan-3-yl)-4H-1,2,4-triazol-3-yl]pyridin-2-yl}-2,3-dihydro-1H-pyrrolo[3,4-c]pyridin-1-one] | – | – | 0.41 | 70 |
| CNCc1nc(N(C)C)cc2c1CN(c1cccc(N3C(=O)OC[C@@H]3C)n1)C2=O [Example 10, 6-(dimethylamino)-4-[(methylamino)methyl]-2-{6-[(4S)-4-methyl-2-oxo-1,3-oxazolidin-3-yl]pyridin-2-yl}-2,3-dihydro-1H-pyrrolo[3,4-c]pyridin-1-one] | 0.26 | 97.6 | – | – |
| C[C@H]1COC(=O)N1c1cccc(N2Cc3c(cc(C4(C)CC4)nc3CN)C2=O)n1 [Example 42, 4-(aminomethyl)-6-(1-methylcyclopropyl)-2-{6-[(4S)-4-methyl-2-oxo-1,3-oxazolidin-3-yl]pyridin-2-yl}-2,3-dihydro-1H-pyrrolo[3,4-c]pyridin-1-one] | 0.33 | 192 | – | – |
| CCCn1c(C)nnc1-c1cccc(N2Cc3c(cc(C4(C)CC4)nc3CN)C2=O)n1 [Example 128, 4-(aminomethyl)-6-(1-methylcyclopropyl)-2-[6-(5-methyl-4-propyl-4H-1,2,4-triazol-3-yl)pyridin-2-yl]-2,3-dihydro-1H-pyrrolo[3,4-c]pyridin-1-one] | – | – | 0.63 | 874 |
| CCCn1c(C)nnc1-c1cccc(N2Cc3c(cc(N4CCCC4(C)C)nc3CN)C2=O)n1 [Example 155] | – | – | 0.16 | 55 |
| CCC(CC)n1cnnc1-c1cccc(N2Cc3c(cc(N(C)CC)nc3CN)C2=O)n1 [Example 153] | – | – | 0.14 | 65 |
| CCC(CC)n1cnnc1-c1cccc(N2Cc3c(cc(N4CCCC4(C)C)nc3CN)C2=O)n1 [Example 151] | – | – | 0.1 | 14 |
| CCN(CC)c1cc2c(c(CN)n1)CN(c1cccc(-c3nncn3C(C)C)n1)C2=O [Example 38, 4-(aminomethyl)-6-(diethylamino)-2-{6-[4-(propan-2-yl)-4H-1,2,4-triazol-3-yl]pyridin-2-yl}-2,3-dihydro-1H-pyrrolo[3,4-c]pyridin-1-one] | 0.38 | 147 | – | – |
| CCN(CC)c1cc2c(c(CN)n1)CN(c1cccc(-c3nnc(C)n3CC)n1)C2=O [Example 163] | – | – | 0.88 | 196 |
| [2H]C([2H])([2H])C([2H])([2H])N(c1cc2c(c(CNC)n1)CN(c1cccc(-c3nncn3CC)n1)C2=O)C([2H])([2H])C([2H])([2H])[2H] [Example 102, 6-{bis[(pentadeuterio)ethyl]amino}-2-[6-(4-ethyl-4H-1,2,4-triazol-3-yl)pyridin-2-yl]-4-[(methylamino)methyl]-2,3-dihydro-1H-pyrrolo[3,4-c]pyridin-1-one] | – | – | 0.29 | 74 |
| CC[C@@H](CC(F)(F)F)n1cnnc1-c1cccc(N2Cc3c(cc(N(C)C(C)C)nc3CNC)C2=O)n1 (single isomer, unassigned) [Example 72, 4-[(methylamino)methyl]-6-[methyl(propan-2-yl)amino]-2-(6-{4-[(3ξ)-1,1,1-trifluoropentan-3-yl]-4H-1,2,4-triazol-3-yl}pyridin-2-yl)-2,3-dihydro-1H-pyrrolo[3,4-c]pyridin-1-one] | – | – | 4.48 | 1020 |
| CC(C)c1[nH]ncc1-c1cccc(N2Cc3c(cc(N(C)C)nc3CN)C2=O)n1 [Example 11, 4-(aminomethyl)-6-(dimethylamino)-2-{6-[5-(propan-2-yl)-1H-pyrazol-4-yl]pyridin-2-yl}-2,3-dihydro-1H-pyrrolo[3,4-c]pyridin-1-one] | 0.09 | 159 | – | – |
| CNCc1nc(C(C)(C)C)cc2c1CN(c1cccc(-c3nncn3C(C)C)n1)C2=O [Example 29, 6-tert-butyl-4-[(methylamino)methyl]-2-{6-[4-(propan-2-yl)-4H-1,2,4-triazol-3-yl]pyridin-2-yl}-2,3-dihydro-1H-pyrrolo[3,4-c]pyridin-1-one] | 3.2 | 396 | – | – |
| CCC(CC)n1cnnc1-c1cccc(N2Cc3c(cc(C4(C)CC4)nc3CN)C2=O)n1 [Example 126, 4-(aminomethyl)-6-(1-methylcyclopropyl)-2-{6-[4-(pentan-3-yl)-4H-1,2,4-triazol-3-yl]pyridin-2-yl}-2,3-dihydro-1H-pyrrolo[3,4-c]pyridin-1-one] | – | – | 0.8 | 114 |
| CCCn1cnnc1-c1cccc(N2Cc3c(cc(C4(C)CC4)nc3CN)C2=O)n1 [Example 90, 4-(aminomethyl)-6-(1-methylcyclopropyl)-2-[6-(4-propyl-4H-1,2,4-triazol-3-yl)pyridin-2-yl]-2,3-dihydro-1H-pyrrolo[3,4-c]pyridin-1-one] | – | – | 1.46 | 694 |

Next, values leading:

| Ki [1, 3] [nM] | IC50 [2, 4] [nM] | Ki ([1]; HPK1 mobility shift assay) [nM] | IC50 [2, 5] [nM] | Compound |
| --- | --- | --- | --- | --- |
| – | – | 0.79 | 136 | CCc1nnc(-c2cccc(N3Cc4c(cc(N5CCC[C@H]5C)nc4CN)C3=O)n2)n1CC [Example 185] |
| – | – | 0.37 | 207 | CN(C)c1cc2c(c(CN)n1)CN(c1cccc(N3C(=O)OC[C@@H]3CF)n1)C2=O [Example 174] |
| – | – | 0.74 | 122 | CCN(c1cc2c(c(CN)n1)CN(c1cccc(-c3nncn3CC)n1)C2=O)C(C)C [Example 141, 4-(aminomethyl)-6-[ethyl(propan-2-yl)amino]-2-[6-(4-ethyl-4H-1,2,4-triazol-3-yl)pyridin-2-yl]-2,3-dihydro-1H-pyrrolo[3,4-c]pyridin-1-one] |
| < 0.05 | 70 | – | – | CNCc1nc(N(C)C)cc2c1CN(c1cccc(-c3nncn3[C@@H](C)CC(F)(F)F)n1)C2=O [Example 17, 6-(dimethylamino)-4-[(methylamino)methyl]-2-(6-{4-[(2S)-4,4,4-trifluorobutan-2-yl]-4H-1,2,4-triazol-3-yl}pyridin-2-yl)-2,3-dihydro-1H-pyrrolo[3,4-c]pyridin-1-one] |
| 0.34 | 210 | – | – | C[C@H]1COC(=O)N1c1cccc(N2Cc3c(cc(N(C)C)nc3CN)C2=O)n1 [Example 32, 4-(aminomethyl)-6-(dimethylamino)-2-{6-[(4S)-4-methyl-2-oxo-1,3-oxazolidin-3-yl]pyridin-2-yl}-2,3-dihydro-1H-pyrrolo[3,4-c]pyridin-1-one] |
| – | – | 0.76 | 300 | CCn1c(C)nnc1-c1cccc(N2Cc3c(cc(N4[C@H](C)CC[C@H]4C)nc3CN)C2=O)n1 [Example 168] |
| – | – | 0.52 | 104 | CCC(CC)n1cnnc1-c1cccc(N2Cc3c(cc(N4[C@H](C)CC[C@H]4C)nc3CN)C2=O)n1 [Example 119, 4-(aminomethyl)-6-[(2R,5R)-2,5-dimethylpyrrolidin-1-yl]-2-{6-[4-(pentan-3-yl)-4H-1,2,4-triazol-3-yl]pyridin-2-yl}-2,3-dihydro-1H-pyrrolo[3,4-c]pyridin-1-one] |
| 0.56 | 358 | – | – | CN(C)c1cc2c(c(CN)n1)CN(c1cccc(-c3nncn3CC3CC3)n1)C2=O [Example 16, 4-(aminomethyl)-2-{6-[4-(cyclopropylmethyl)-4H-1,2,4-triazol-3-yl]pyridin-2-yl}-6-(dimethylamino)-2,3-dihydro-1H-pyrrolo[3,4-c]pyridin-1-one] |
| – | – | 1.5 | 375 | C[C@@H]1CC[C@@H](C)N1c1cc2c(c(CN)n1)CN(c1cccc(N3C(=O)OC[C@@H]3CF)n1)C2=O [Example 124, 4-(aminomethyl)-6-[(2R,5R)-2,5-dimethylpyrrolidin-1-yl]-2-{6-[(4R)-4-(fluoromethyl)-2-oxo-1,3-oxazolidin-3-yl]pyridin-2-yl}-2,3-dihydro-1H-pyrrolo[3,4-c]pyridin-1-one] |
| 5.1 | 1110 | – | – | C[C@H]1COC(=O)N1c1cccc(N2Cc3c(cc(C(C)(C)C)nc3CN)C2=O)n1 [Example 36, 4-(aminomethyl)-6-tert-butyl-2-{6-[(4S)-4-methyl-2-oxo-1,3-oxazolidin-3-yl]pyridin-2-yl}-2,3-dihydro-1H-pyrrolo[3,4-c]pyridin-1-one] |
